From ChEMBL document CHEMBL4610106, “Identification of the Clinical Development Candidate MRTX849, a Covalent KRASG12C Inhibitor for the Treatment of Cancer” (J Med Chem, 2020)
Blank lines part the entries; values can stand above or below the compound they belong to.

Assays:
[1] = target: GTPase KRas (Homo sapiens, UniProt P01116, G12C)
[2] = Clearance in CD1 mouse at 3 mg/kg, iv; type: ADME, organism-based; settings: in vivo
[3] = Half life in CD1 mouse at 3 mg/kg, iv; type: ADME, organism-based; settings: in vivo
[4] = Volume of distribution at steady state in CD1 mouse at 3 mg/kg, iv; type: ADME, organism-based; settings: in vivo, read-out: Vdss
[5] = test system: GTPase KRas (Homo sapiens), P01116 [G12C]; assay: In-vivo target engagement at KRAS G12C mutant in athymic nude-Foxn1nu mouse xenografted with human NCI-H358 cells assessed as KRAS G12C modification level in tumor lysate at 10 mg/kg, po dosed via gavage as single administration measured after 6 hrs by LC-MS analysis relative to control; type: functional, organism-based; settings: Neoplasm
[6] = Cmax in CD1 mouse at 30 mg/kg, po; type: ADME, organism-based; parameters: dose 30 mg/kg, route oral; settings: in vivo
[7] = Tmax in CD1 mouse at 30 mg/kg, po; type: ADME, organism-based; settings: in vivo
[8] = AUC (infinity) in CD1 mouse at 30 mg/kg, po; type: ADME, organism-based; parameters: dose 30 mg/kg, time infinity, route oral; settings: in vivo
[9] = Oral bioavailability in CD1 mouse at 30 mg/kg; type: ADME, organism-based; settings: in vivo
[10] = test system: GTPase KRas (Homo sapiens), P01116 [G12C]; assay: In-vivo target engagement at KRAS G12C mutant in athymic nude-Foxn1nu mouse xenografted with human NCI-H358 cells assessed as KRAS G12C modification level in tumor lysate at 30 mg/kg, po dosed via gavage as single administration measured after 6 hrs by LC-MS analysis relative to control; type: functional, organism-based; settings: Neoplasm
[11] = test system: GTPase KRas (Homo sapiens), P01116 [G12C]; assay: In-vivo target engagement at KRAS G12C mutant in athymic nude-Foxn1nu mouse xenografted with human NCI-H358 cells assessed as KRAS G12C modification level in tumor lysate at 100 mg/kg, po dosed via gavage as single administration measured after 6 hrs by LC-MS analysis relative to contro; type: functional, organism-based; settings: Neoplasm
[12] = test system: MIA PaCa-2; assay: Antitumor activity against human MIAPaCa2 cells xenografted in athymic nude-Foxn1nu mouse assessed as induction of tumor regression at 30 mg/kg, po dosed daily via gavage for 16 days; type: functional
[13] = test system: MIA PaCa-2; assay: Antitumor activity against human MIAPaCa2 cells xenografted in athymic nude-Foxn1nu mouse assessed as induction of tumor regression at 30 mg/kg, po dosed daily via gavage for 16 days followed by drug cessation and measured up to 40 days; type: functional
[14] = Half life in beagle dog at 3 mg/kg, iv; type: ADME, organism-based, Canis lupus familiaris; settings: in vivo
[15] = Clearance in beagle dog at 3 mg/kg, iv; type: ADME, organism-based, Canis lupus familiaris; settings: in vivo
[16] = Volume of distribution at steady state in beagle dog at 3 mg/kg, iv; type: ADME, organism-based, Canis lupus familiaris; settings: in vivo, read-out: Vdss
[17] = Cmax in beagle dog at 10 mg/kg, po; type: ADME, organism-based, Canis lupus familiaris; parameters: dose 10 mg/kg, route oral; settings: in vivo
[18] = Tmax in beagle dog at 10 mg/kg, po; type: ADME, organism-based, Canis lupus familiaris; settings: in vivo
[19] = target: Glutathione S-transferase P (Homo sapiens) (UniProt P09211); assay: Drug metabolism in human whole blood assessed as GSTP1-1-mediated GSH conjugation; type: tissue-based
[20] = AUC (infinity) in beagle dog at 10 mg/kg, po; type: ADME, organism-based, Canis lupus familiaris; parameters: dose 10 mg/kg, time infinity, route oral; settings: in vivo
[21] = Oral bioavailability in beagle dog at 10 mg/kg; type: ADME, organism-based, Canis lupus familiaris; settings: in vivo
[22] = Half life in mouse whole blood at 5 uM by LC-MS/MS analysis; type: ADME, tissue-based
[23] = Half life in dog whole blood at 5 uM by LC-MS/MS analysis; type: ADME, tissue-based, Canis lupus familiaris
[24] = Half life in human whole blood at 5 uM by LC-MS/MS analysis; type: ADME, tissue-based
[25] = Cmax in CD1 mouse at 10 mg/kg, po; type: ADME, organism-based; parameters: dose 10 mg/kg, route oral; settings: in vivo
[26] = Tmax in CD1 mouse at 10 mg/kg, po; type: ADME, organism-based; settings: in vivo
[27] = AUC (infinity) in CD1 mouse at 10 mg/kg, po; type: ADME, organism-based; parameters: dose 10 mg/kg, route oral, time infinity; settings: in vivo
[28] = Oral bioavailability in CD1 mouse at 10 mg/kg; type: ADME, organism-based; settings: in vivo
[29] = Half life in presence of GSH in phosphate buffer at 1 uM at 37 degC by LC-MS/M analysis; type: physicochemical; settings: phosphate buffer with GSH
[30] = Hepatic extraction ratio in human hepatocytes at 10 uM incubated for 2 hrs by LC-MS analysis; type: ADME, cell-based, Hepatocyte; settings: read-out: ERH
[31] = Hepatic extraction ratio in human liver microsomes; type: ADME, Microsome; settings: read-out: ERH

Sequence of GTPase KRas (Homo sapiens), P01116 [G12C] (P01116 whole entry G12C): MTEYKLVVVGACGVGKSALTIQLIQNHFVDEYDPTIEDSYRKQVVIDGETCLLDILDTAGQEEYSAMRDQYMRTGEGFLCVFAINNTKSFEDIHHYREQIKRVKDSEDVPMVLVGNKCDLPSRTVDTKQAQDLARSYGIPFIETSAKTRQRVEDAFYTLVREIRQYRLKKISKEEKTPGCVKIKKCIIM
Sequence of GTPase KRas (P01116 whole entry G12C): as above
Sequence of Glutathione S-transferase P (Homo sapiens) (P09211 2-210 limits assumed): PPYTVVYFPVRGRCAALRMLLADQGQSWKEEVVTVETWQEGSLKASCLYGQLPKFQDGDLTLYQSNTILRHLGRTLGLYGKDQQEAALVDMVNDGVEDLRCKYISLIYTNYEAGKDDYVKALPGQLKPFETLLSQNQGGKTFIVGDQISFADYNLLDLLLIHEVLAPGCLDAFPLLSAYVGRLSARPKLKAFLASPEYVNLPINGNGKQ

SMILES: C=CC(=O)N1CCN(c2nc(OC[C@@H]3CCCN3C)nc3c2CCN(c2cccc4ccccc24)C3)C(CO)C1 (some centres undefined)
IC50 [1]: 4.53 µM

SMILES: C=CC(=O)N1CCN(c2nc(OC[C@@H]3CCCN3C)nc3c2CCN(c2cccc4ccccc24)C3)C(CCO)C1 (some centres undefined)
IC50 [1]: 4.84 µM

clearance [2]: 2.24 L/h/kg
half-life [3]: 0.496 h
Vd [4]: 0.867 L/kg
Activity [5]: 70%
Cmax [6]: 2.46 µg/mL
Tmax [7]: 0.25 h
AUC(0-inf) [8]: 2.27 µg·h/mL
bioavailability [9]: 16.9%
Activity [10]: 89%
Activity [11]: > 90%
half-life [14]: 0.826 h
clearance [15]: 13.5 L/h/kg
Vd [16]: 7.91 L/kg
Cmax [17]: 0.0163 µg/mL
Tmax [18]: 0.833 h
Drug metabolism [19]: Metabolite detected
AUC(0-inf) [20]: 0.0319 µg·h/mL
bioavailability [21]: 4.12%
half-life at 5 µM [22]: 5 h
half-life at 5 µM [23]: 2 h
half-life at 5 µM [24]: 14 h
SMILES: C=CC(=O)N1CCN(c2nc(OC[C@@H]3CCCN3C)nc3c2CCN(c2cccc4cccc(Cl)c24)C3)C[C@@H]1CC#N
Activity [12]: 100%
Activity [13]: 100%

SMILES: C=CC(=O)N1CCN(c2nc(OC[C@@H]3CCCN3C)nc3c2CCN(c2c(C)ccc4[nH]ncc24)C3)CC1
IC50 [1]: 1.5 µM

SMILES: C=C(OC)C(=O)N1CCN(c2nc(OC[C@@H]3CCCN3C)nc3c2CCN(c2cccc4cccc(Cl)c24)C3)C[C@@H]1CC#N
half-life at 5 µM [22]: > 50 h
half-life at 5 µM [23]: > 50 h
half-life at 5 µM [24]: 40 h
IC50 [1]: > 5 µM

SMILES: COC/C=C/C(=O)N1CCN(c2nc(OC[C@@H]3CCCN3C)nc3c2CCN(c2cccc4cccc(Cl)c24)C3)C[C@@H]1CC#N
half-life at 5 µM [22]: 11 h
half-life at 5 µM [23]: 22 h
half-life at 5 µM [24]: > 50 h
IC50 [1]: 0.009 µM

SMILES: C=CC(=O)N1CCN(c2nc(OC[C@@H]3CCCN3C)nc3c2CCN(c2cccc4cccc(CC)c24)C3)C[C@@H]1CC#N
IC50 [1]: 0.006 µM

SMILES: C=CC(=O)N1CCN(c2nc(OC[C@@H]3CCCN3C)nc3c2CCN(c2cccc4ccccc24)C3)CC1
half-life [3]: 0.908 h
Vd [4]: 0.996 L/kg
Cmax [25]: 0.131 µg/mL
Tmax [26]: 0.5 h
AUC [27]: 0.302 µg·h/mL
F [28]: 13.9%
half-life at 1 µM [29]: 17 h
IC50 [1]: 4.4 µM

SMILES: C=CC(=O)N1CCN(c2nc(OC[C@@H]3CCCN3C)nc3c2CCN(c2cccc4cccc(C(F)(F)F)c24)C3)C[C@@H]1CC#N
IC50 [1]: 0.004 µM

SMILES: C=CC(=O)N1CCN(c2nc(OC[C@@H]3CCCN3C)nc3c2CCN(c2c(C)c(C)cc4[nH]ncc24)C3)CC1
hepatic extraction ratio at 2 h, 10 µM [30]: < 0.55
hepatic extraction ratio [31]: < 0.55
IC50 [1]: 0.254 µM

SMILES: C=CC(=O)N1CCN(c2nc(OC[C@@H]3CCCN3C)nc3c2CCN(c2cccc4cccc(C#N)c24)C3)C[C@@H]1CC#N
IC50 [1]: 0.064 µM

SMILES: C=CC(=O)N1CCN(c2nc(OC[C@@H]3CCCN3C)nc3c2CCN(c2cccc4ccccc24)C3)C(CC#N)C1 (some centres undefined)
IC50 [1]: 3.32 µM
